{"source": "patent US6596718B1", "about": "“7-Morpholin-4yl-benzothiazole amide derivatives” (Hoffmann-La Roche Inc., priority 2001, dated 2003)", "key": {"[1]": {"molecular_target": "T1, human adenosine A1 receptor (Homo sapiens, UniProt P30542)", "T1 construct": "expressed in transfected cells; host or cells: CHO cells, Semliki Forest virus expression system; membrane preparation", "T1 sequence (P30542 1-326)": "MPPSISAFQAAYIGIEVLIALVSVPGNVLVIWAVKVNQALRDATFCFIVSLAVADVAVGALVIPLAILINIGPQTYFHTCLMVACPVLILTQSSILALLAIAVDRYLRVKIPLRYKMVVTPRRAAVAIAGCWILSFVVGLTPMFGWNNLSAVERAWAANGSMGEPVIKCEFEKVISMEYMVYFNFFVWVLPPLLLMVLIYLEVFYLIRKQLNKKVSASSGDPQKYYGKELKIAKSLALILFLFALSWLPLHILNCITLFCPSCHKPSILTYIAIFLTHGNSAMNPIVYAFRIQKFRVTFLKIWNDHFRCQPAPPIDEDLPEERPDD", "test": "[3H]-DPCPX binding assay, human adenosine A1 receptor (SPA, CHO cell membranes)", "settings": "recombinant human A1 in CHO membranes; [3H]-DPCPX 0.6 nM; Ki by Cheng-Prussoff; read-out: hA1 (pKi) (converted)", "experimental": "Human Adenosine A1 Receptor\nThe human adenosine A1 receptor was recombinantly expressed in chinese hamster ovary (CHO) cells using the semlilki forest virus expression system. Cells were harvested, washed twice by centrifugation, homogenized and again washed by centrifugation. The final washed membrane pellet was suspended in a Tris (50 mM) buffer containing 120 mM NaCl, 5 mM KCl, 2 mM CaCl2 and 10 mM MgCl2 (pH 7.4) (buffer A). The [^3H]-DPCPX (([propyl-^3H]8-cyclopentyl-1,3-dipropyxanthine); 0.6 nM) binding assay was carried out in 96-well plates in the presence of 2.5 μg of membrane protein, 0.5 mg of Ysi-poly-l-lysine SPA beads and 0.1 U adenosine deaminase in a final volume of 200 μl of buffer A. Non-specific binding was defined using xanthine amine congener (XAC; 2 μM). Compounds were tested at 10 concentrations from 10 μM-0.3 nM. All assays were conducted in duplicate and repeated at least two times. Assay plates were incubated for 1 hour at room temperature before centrifugation and then bound ligand determined using a Packard Topcount scintillation counter. IC50, the concentration where 50% of the […] binding is displaced, values were calculated using a non-linear curve fitting program and ki values calculated using the Cheng-Prussoff equation."}}}
{"smiles": "COc1ccc(N2CCOCC2)c2sc(C(=O)NCCc3ccc(F)cc3)nc12", "note": "[Example 59, 4-Methoxy-7-morpholin-4-yl-benzothiazole-2-carboxylic acid [2-(4-fluoro-phenyl)-ethyl]-amide]", "values": [{"measurement": "Ki", "setting": "[1]", "value": 6.31, "unit": "µM"}, {"measurement": "melting point", "value": "150 to 153", "unit": "°C"}]}
{"smiles": "COc1ccc(N2CCOCC2)c2sc(C(=O)NCC(=O)c3sccc3Cl)nc12", "note": "[Example 73, 4-Methoxy-7-morpholin-4-yl-benzothiazole-2-carboxylic acid [2-(3-chloro-thiophen-2-yl)-2-oxo-ethyl]-amide]", "values": [{"measurement": "Ki", "setting": "[1]", "value": 1.58, "unit": "µM"}, {"measurement": "melting point", "value": "125 to 127", "unit": "°C"}]}
{"smiles": "COc1ccccc1CCNC(=O)c1nc2c(OC)ccc(N3CCOCC3)c2s1", "note": "[Example 49, 4-Methoxy-7-morpholin-4-yl-benzothiazole-2-carboxylic acid [2-(2-methoxy-phenyl)-ethyl]-amide]", "values": [{"measurement": "Ki", "setting": "[1]", "value": 1.58, "unit": "µM"}, {"measurement": "melting point", "value": "158 to 160", "unit": "°C"}]}
{"smiles": "COc1ccc(N2CCOCC2)c2sc(C(=O)NCCc3ccc(Cl)cc3)nc12", "note": "[Example 62, 4-Methoxy-7-morpholin-4-yl-benzothiazole-2-carboxylic acid [2-(4-chloro-phenyl)-ethyl]-amide]", "values": [{"measurement": "Ki", "setting": "[1]", "value": 2, "unit": "µM"}, {"measurement": "melting point", "value": "153 to 154", "unit": "°C"}]}
{"smiles": "COc1ccc(N2CCOCC2)c2sc(C(=O)N[C@H]3CCCC[C@@H]3O)nc12", "note": "(stereo in doubt) [Example 72, 4-Methoxy-7-morpholin-4-yl-benzothiazole-2-carboxylic acid (2-hydroxy-cyclohexyl)-amide]", "values": [{"measurement": "melting point", "value": "110 to 115", "unit": "°C"}]}
{"smiles": "COc1ccc(N2CCOCC2)c2sc(C(=O)NCc3cccc(F)c3)nc12", "note": "[Example 20, 4-Methoxy-7-morpholin-4-yl-benzothiazole-2-carboxylic acid 3-fluoro-benzylamide]", "values": [{"measurement": "melting point", "value": "152 to 153", "unit": "°C"}]}
{"smiles": "COc1ccc(N2CCOCC2)c2sc(C(=O)NCc3ccc4c(c3)OCO4)nc12", "note": "[Example 14, 4-Methoxy-7-morpholin-4-yl-benzothiazole-2-carboxylic acid (benzo[1,3]dioxol-5-ylmethyl)-amide]", "values": [{"measurement": "melting point", "value": "190 to 193", "unit": "°C"}]}
{"smiles": "COc1ccc(N2CCOCC2)c2sc(C(=O)Nc3ccc(F)cc3)nc12", "note": "[Example 2, 4-Methoxy-7-morpholin-4-yl-benzothiazole-2-carboxylic Acid (4-Fluoro-phenyl)-amide]", "values": [{"measurement": "melting point", "value": "206 to 208", "unit": "°C"}]}
{"smiles": "COc1ccc(N2CCOCC2)c2sc(C(=O)NCC(=O)c3cccs3)nc12", "note": "[Example 78, 4-Methoxy-7-morpholin-4-yl-benzothiazole-2-carboxylic acid (2-oxo-2-thiophen-2-yl-ethyl)-amide]", "values": [{"measurement": "melting point", "value": "171 to 173", "unit": "°C"}]}
{"smiles": "COc1ccc(N2CCOCC2)c2sc(C(=O)NCCN3C(=O)c4ccccc4C3=O)nc12", "note": "[Example 34, 4-Methoxy-7-morpholin-4-yl-benzothiazole-2-carboxylic acid [2-(1,3-dioxo-1,3-dihydro-isoindol-2-yl)-ethyl]-amide]", "values": [{"measurement": "melting point", "value": "231 to 233", "unit": "°C"}]}
{"smiles": "COc1ccc(N2CCOCC2)c2sc(C(=O)NCCCN3C(=O)c4ccccc4C3=O)nc12", "note": "[Example 32, 4-Methoxy-7-morpholin-4-yl-benzothiazole-2-carboxylic acid [3-(1,3-dioxo-1,3-dihydro-isoindol-2-yl)-propyl]-amide]", "values": [{"measurement": "melting point", "value": "200 to 202", "unit": "°C"}]}
{"smiles": "COc1ccc(N2CCOCC2)c2sc(C(=O)NCc3ccccc3Cl)nc12", "note": "[Example 16, 4-Methoxy-7-morpholin-4-yl-benzothiazole-2-carboxylic acid 2-chloro-benzylamide]", "values": [{"measurement": "Ki", "setting": "[1]", "value": 3.98, "unit": "µM"}, {"measurement": "melting point", "value": "114 to 116", "unit": "°C"}]}
{"smiles": "COc1ccc(N2CCOCC2)c2sc(C(=O)NCC3CCCO3)nc12", "note": "(centres unmarked) [Example 41, 4-Methoxy-7-morpholin-4-yl-benzothiazole-2-carboxylic acid (tetrahydro-furan-2-ylmethyl)-amide]", "values": [{"measurement": "melting point", "value": "171 to 172", "unit": "°C"}]}
{"smiles": "COc1ccc(N2CCOCC2)c2sc(C(=O)NNC(=O)c3cccnc3)nc12", "note": "[Example 44, Nicotinic acid N′-(4-methoxy-7-morpholin-4-yl-benzothiazole-2-carbonyl)-hydrazide]", "values": [{"measurement": "melting point", "value": "222 to 224", "unit": "°C"}]}
{"smiles": "COc1ccc(N2CCOCC2)c2sc(C(=O)NCc3ccccn3)nc12", "note": "[Example 13, 4-Methoxy-7-morpholin-4-yl-benzothiazole-2-carboxylic acid (pyridin-2-ylmethyl)-amide]", "values": [{"measurement": "Ki", "setting": "[1]", "value": 6.31, "unit": "µM"}, {"measurement": "melting point", "value": "181 to 182", "unit": "°C"}]}
{"smiles": "COc1ccc(CNC(=O)c2nc3c(OC)ccc(N4CCOCC4)c3s2)cc1", "note": "[Example 26, 4-Methoxy-7-morpholin-4-yl-benzothiazole-2-carboxylic acid 4-methoxy-benzylamide]", "values": [{"measurement": "melting point", "value": "164 to 168", "unit": "°C"}]}
{"smiles": "COc1ccc(N2CCOCC2)c2sc(C(=O)NC(c3ccccc3)c3ccccn3)nc12", "note": "(centres unmarked) [Example 67, 4-Methoxy-7-morpholin-4-yl-benzothiazole-2-carboxylic acid (phenyl-pyridin-2-yl-methyl)-amide]", "values": [{"measurement": "melting point", "value": "219 to 221", "unit": "°C"}]}
{"smiles": "COc1cccc(CNC(=O)c2nc3c(OC)ccc(N4CCOCC4)c3s2)c1", "note": "[Example 27, 4-Methoxy-7-morpholin-4-yl-benzothiazole-2-carboxylic acid 3-methoxy-benzylamide]", "values": [{"measurement": "melting point", "value": "140 to 144", "unit": "°C"}]}
{"smiles": "COc1ccc(N2CCOCC2)c2sc(C(=O)NCCc3cccc(C(F)(F)F)c3)nc12", "note": "[Example 60]", "values": [{"measurement": "melting point", "value": "106 to 108", "unit": "°C"}]}
{"smiles": "COc1ccc(N2CCOCC2)c2sc(C(=O)NC[C@H]3CCCC[C@H]3O)nc12", "note": "(stereo in doubt) [Example 42, 4-Methoxy-7-morpholin-4-yl-benzothiazole-2-carboxylic acid (2-hydroxy-cyclohexylmethyl)-amide]", "values": [{"measurement": "melting point", "value": "178 to 180", "unit": "°C"}]}
{"smiles": "COc1ccc(C(=O)CNC(=O)c2nc3c(OC)ccc(N4CCOCC4)c3s2)cc1", "note": "[Example 66, 4-Methoxy-7-morpholin-4-yl-benzothiazole-2-carboxylic acid [2-(4-methoxy-phenyl)-2-oxo-ethyl]-amide]", "values": [{"measurement": "melting point", "value": "176 to 178", "unit": "°C"}]}
{"smiles": "COc1ccccc1C(=O)NCCNC(=O)c1nc2c(OC)ccc(N3CCOCC3)c2s1", "note": "[Example 37, 4-Methoxy-7-morpholin-4-yl-benzothiazole-2-carboxylic acid [2-(2-methoxy-benzoylamino)-ethyl]-amide]", "values": [{"measurement": "melting point", "value": "180 to 183", "unit": "°C"}]}
{"smiles": "COc1ccc(N2CCOCC2)c2sc(C(=O)NCCc3ccc(C)cc3)nc12", "note": "[Example 61, 4-Methoxy-7-morpholin-4-yl-benzothiazole-2-carboxylic acid (2-p-tolyl-ethyl)-amide]", "values": [{"measurement": "melting point", "value": "136 to 138", "unit": "°C"}]}
{"smiles": "COc1ccc(N2CCOCC2)c2sc(C(=O)Nc3ccc(C)nc3)nc12", "note": "[Example 82, 4-Methoxy-7-morpholin-4-yl-benzothiazole-2-carboxylic acid (6-methyl-pyridin-3-yl)-amide]", "values": [{"measurement": "melting point", "value": "145 to 147", "unit": "°C"}]}
{"smiles": "COc1ccc(N2CCOCC2)c2sc(C(=O)NNc3ccccc3)nc12", "note": "[Example 51, 4-Methoxy-7-morpholin-4-yl-benzothiazole-2-carboxylic acid N′-phenyl-hydrazide]", "values": [{"measurement": "melting point", "value": "226 to 227", "unit": "°C"}]}
{"smiles": "COc1ccc(N2CCOCC2)c2sc(C(=O)NCC(=O)c3ccc4c(c3)OCCO4)nc12", "note": "[Example 75, 4-Methoxy-7-morpholin-4-yl benzothiazole-2-carboxylic acid [2-(2,3-dihydro-benzo[1,4]dioxin-6-yl)-2-oxo-ethyl]-amide]", "values": [{"measurement": "melting point", "value": "206 to 208", "unit": "°C"}]}
{"smiles": "COc1ccc(N2CCOCC2)c2sc(C(=O)NCCc3ccccn3)nc12", "note": "[Example 38, 4-Methoxy-7-morpholin-4-yl-benzothiazole-2-carboxylic acid (2-pyridin-2-yl-ethyl)-amide]", "values": [{"measurement": "melting point", "value": "184 to 185", "unit": "°C"}]}
{"smiles": "COc1ccc(N2CCOCC2)c2sc(C(=O)NCC3CCCCC3)nc12", "note": "[Example 35, 4-Methoxy-7-morpholin-4-yl-benzothiazole-2-carboxylic acid cyclohexylmethyl-amide]", "values": [{"measurement": "melting point", "value": "150 to 151", "unit": "°C"}]}
{"smiles": "COc1ccc(N2CCOCC2)c2sc(C(=O)NCCc3ccccc3F)nc12", "note": "[Example 58, 4-Methoxy-7-morpholin-4-yl-benzothiazole-2-carboxylic acid [2-(2-fluoro-phenyl)-ethyl]-amide]", "values": [{"measurement": "melting point", "value": "151 to 153", "unit": "°C"}]}
